Experiments:
[1] = tested on: 60 cancer cell lines; test: NCI 60-cell one dose screen, whole panel; format: cell-based, human; conditions: 10^−5M
Description: (§1) NSC745885 was studied as a prototype for anti-proliferative activity against human cancer cell lines in NCI Drug Screen Program (Table 1, below). NSC745885 was evaluated in the full panel of human tumor cell lines derived from nine cancer cell types (leukemia, non-small cell lung cancer, colon cancer, CNS cancer, prostate cancer, melanoma, ovarian cancer, renal cancer and breast cancer). Each subpanel uses several cell lines and dose-response curves were drawn against the decadic logarithm (log 10) of the corresponding drug concentrations for each cell line by the subpanel group. They were also evaluated in the 60 cell line panel and anticancer assay was performed in accordance with the protocol of developmental therapeutics program (one dose mean graph). Results for each compound were reported as the proliferation percentage of the treated cells with that of the untreated control cells being 100. For each of these parameters the averaged values of mean graph midpoint (MG_MID) were calculated.

[2] = tested on: p21 promoter reporter (p21-LUC); test: p21 promoter reporter (p21-LUC) luciferase assay; format: cell-based, human; conditions: HeLa cells, highest concentration
Description: (§2) HeLa and HeLa/shp53 cells were grown in DMEM supplemented with 10% charcoal/dextran-treated fetal bovine serum. Cells in a 24-well plate were transfected with jetPEI (PolyPlus-transfection, France) according to the manufacturer's protocol; total DNA was adjusted to 1.0 μg by the addition of empty vector DNA. Luciferase assays were performed using the Promega Luciferase Assay kit, and the measurement was expressed numerically as relative light units (RLU). Luciferase activities were presented as means and standard deviation of two transfected sets. […] Instead, the reproducibility of the observed effects on luciferase activity was determined in multiple independent transfection experiments.
(§3) HeLa cells infected with human papillomavirus and expressing the E6 oncoprotein, which maintains endogenous wild-type p53 at a very low concentration, are used as a model system for studying human cervical tumorigenesis. In order for us to confirm the effects of DXR and NSC745885 on endogenous p53, HeLa cells were transiently transfected with a p53-dependent reporter (pG13-LUC) (FIG. 7A) and a p21 promoter reporter (p21-LUC) (FIG. 7B), along with an expression vector for a well-known p53 activator (Zac1).

[3] = tested on: p53-dependent reporter (pG13-LUC); test: p53-dependent reporter (pG13-LUC) luciferase assay; format: cell-based, human
Description: as §2, §3

[4] = tested on: SNB-19; test: NCI 60-cell one dose screen; format: cell-based, human; conditions: SNB-19 (CNS cancer); 10^−5M
Description: as §1

[5] = tested on: OVCAR-3; test: NCI 60-cell one dose screen; format: cell-based, human; conditions: OVCAR-3 (Ovarian cancer); 10^−5M
Description: as §1

[6] = tested on: DU-145; test: NCI 60-cell one dose screen; format: cell-based, human; conditions: DU-145 (Prostate cancer); 10^−5M
Description: as §1

[7] = tested on: MDA-MB-435; test: NCI 60-cell one dose screen; format: cell-based, human; conditions: MDA-MB-435 (Breast cancer); 10^−5M
Description: as §1

[8] = tested on: OVCAR-8; test: NCI 60-cell one dose screen; format: cell-based, human; conditions: OVCAR-8 (Ovarian cancer); 10^−5M
Description: as §1

[9] = tested on: SK-MEL-28; test: NCI 60-cell one dose screen; format: cell-based, human; conditions: SK-MEL-28 (Melanoma); 10^−5M
Description: as §1

[10] = tested on: NCI-H23; test: NCI 60-cell one dose screen; format: cell-based, human; conditions: NCI-H23 (Non-small cell lung cancer); 10^−5M
Description: as §1

[11] = tested on: SF-295; test: NCI 60-cell one dose screen; format: cell-based, human; conditions: SF-295 (CNS cancer); 10^−5M
Description: as §1

[12] = tested on: LOX IMVI; test: NCI 60-cell one dose screen; format: cell-based, human; conditions: LOX IMVI (Melanoma); 10^−5M
Description: as §1

[13] = tested on: CCRF-CEM; test: NCI 60-cell one dose screen; format: cell-based, human; conditions: CCRF-CEM (Leukemia); 10^−5M
Description: as §1

[14] = tested on: COLO 205; test: NCI 60-cell one dose screen; format: cell-based, human; conditions: COLO 205 (Colon cancer); 10^−5M
Description: as §1

[15] = tested on: SF-539; test: NCI 60-cell one dose screen; format: cell-based, human; conditions: SF-539 (CNS cancer); 10^−5M
Description: as §1

[16] = tested on: SK-OV-3; test: NCI 60-cell one dose screen; format: cell-based, human; conditions: SK-OV-3 (Ovarian cancer); 10^−5M
Description: as §1

[17] = tested on: EKVX; test: NCI 60-cell one dose screen; format: cell-based, human; conditions: EKVX (Non-small cell lung cancer); 10^−5M
Description: as §1

[18] = tested on: TK-10; test: NCI 60-cell one dose screen; format: cell-based, human; conditions: TK-10 (Renal cancer); 10^−5M
Description: as §1

[19] = tested on: NCI-H226; test: NCI 60-cell one dose screen; format: cell-based, human; conditions: NCI-H226 (Non-small cell lung cancer); 10^−5M
Description: as §1

[20] = tested on: HCC-2998; test: NCI 60-cell one dose screen; format: cell-based, human; conditions: HCC-2998 (Colon cancer); 10^−5M
Description: as §1

[21] = tested on: SK-MEL-2; test: NCI 60-cell one dose screen; format: cell-based, human; conditions: SK-MEL-2 (Melanoma); 10^−5M
Description: as §1

[22] = tested on: MCF7; test: NCI 60-cell one dose screen; format: cell-based, human; conditions: MCF7 (Breast cancer); 10^−5M
Description: as §1

[23] = tested on: HT29; test: NCI 60-cell one dose screen; format: cell-based, human; conditions: HT29 (Colon cancer); 10^−5M
Description: as §1

[24] = tested on: HT29; test: NCI 60-cell panel dose-response; format: cell-based; conditions: Homo sapiens, HT-29; HT29 (Colon cancer)
[25] = tested on: OVCAR-3; test: NCI 60-cell panel dose-response; conditions: Homo sapiens, OVCAR-3, read-out: LC50
[26] = tested on: MBT2; test: Cell proliferation inhibition, bladder cancer cell line; format: cell-based; conditions: MBT2 bladder cancer cells, 2.5 uM
Description: (§4) To investigate the cell proliferation inhibition effect of NSC745885 in cancer cells, we compared the cancer cell proliferation inhibition effect of the NSC745885 with well-know bladder anti-cancer agent “Emodin” and clinical cancer chemical therapy agent “Doxorubicin”. The experiment bladder cancer cell lines includes T24 (FIG. 9A, 9D) and MBT2 (FIG. 9 B, 9E). We also confirm the NSC745885 cell toxicity using the non-cancer cell fibroblast 3T3 (FIG. 9C) and normal epithelial cell SV_UC—1 (FIG. 9F).

[27] = tested on: T24; test: as above; format: cell-based; conditions: T24 bladder cancer cells, 2.5 uM
Description: as §4

SMILES: O=C1c2ccccc2C(=O)c2c1ccc1nsnc21 [NSC745885, anthra[2,1-c][1,2,5]thiadiazole-6,11-dione]
- proliferation percentage, Delta ([1]; delta of the one dose mean graph): 102.68%
- proliferation percentage, Mean ([1]; mean over the cell lines): 2.68%
- proliferation percentage, Range ([1]; range over the cell lines): 230.09%
- p21 promoter reporter activity [2]: decreased p21 promoter reporter activity
- Zac1-induced p53-dependent reporter activity ([3]; HeLa cells co-transfected with Zac1 expression vector): inhibited Zac1-induced activity
- pG13-LUC reporter activity ([3]; HeLa cells transiently transfected, without Zac1): enhanced pG13-LUC reporter activity in a concentration-dependent manner
- proliferation percentage [4]: 78.98%
- proliferation percentage [5]: −15.47%
- proliferation percentage [6]: 40.76%
- proliferation percentage [7]: −87.88%
- proliferation percentage [8]: −10.07%
- proliferation percentage [9]: 15.47%
- proliferation percentage [10]: 16.07%
- proliferation percentage [11]: 126.17%
- proliferation percentage [12]: −50.63%
- proliferation percentage [13]: −30.81%
- proliferation percentage [14]: 111.54%
- proliferation percentage [15]: −47.11%
- proliferation percentage [16]: 100.70%
- proliferation percentage [17]: 103.18%
- proliferation percentage [18]: 96.99%
- proliferation percentage [19]: 97.80%
- proliferation percentage [20]: −0.74%
- proliferation percentage [21]: −73.16%
- proliferation percentage [22]: −50.74%
- proliferation percentage [23]: 116.95%
- GI50 [24]: 13.4 µM
- CC50 [25]: 11.1 µM
- cancer cell proliferation inhibition [26]: distinct cancer cell proliferation inhibition ability
- cancer cell proliferation inhibition [27]: distinct cancer cell proliferation inhibition ability

Source: US8772321B2, “Heteroannelated anthraquinone derivatives for inhibiting cancers” (National Defense Medical Center, priority 2008, dated 2014)
